Test results published in patent US20090182149A1, “SALT OF SULFINYLBENZIMIDAZOLE COMPOUND, AND CRYSTAL AND AMORPHOUS FORM THEREOF” (priority 2006, published 2009).

Test system: gastric secretion (gastric acid output) in chronic gastrostormy tube-implanted dogs
Assay: Gastric secretion inhibitory action in chronic gastrostormy tube-implanted dogs (histamine-stimulated)
Assay type: in vivo
Settings: i.d., histamine i.v.; for Gastric secretion inhibitory action (%): first day, 1 h 40 min to 2 h after administration; for Gastric secretion inhibition duration (%): second day (24 hours after administration)
Procedure: Gastric Secretion Inhibitory Action in Chronic Gastrostormy Tube-Implanted Dogs
Large dogs (body weight: 14-19 kg) having chronic gastrostormy tubes implanted were used to examine the gastric secretion inhibitory action and gastric secretion inhibitory action durations of the example compounds. The experiment was conducted over a period of 2 days. On the first day, histamine (50 or 75 μg/kg/h) was continuously administered intravenously for 3 hours and gastric juice was taken every 20 minutes. One hour after starting histamine administration, the example compound suspended or dissolved in a 0.5% methylcellulose solution was administered to the duodenum through an indwelling catheter at a dose of 0.1 ml/kg. The gastric secretion inhibitory action of the example compound was examined for 2 hours thereafter. On the second day (24 hours after administration of the example compound), histamine was continuously administered intravenously for 2 hours and gastric juice was taken every 20 minutes to examine the gastric secretion inhibitory action duration. After measuring the gastric juice volume, 0.5 ml of gastric juice was sampled and subjected to neutralization titration to pH 7.0 with a 0.04 mol/l sodium hydroxide solution to measure the acid concentration. The acid concentration was multiplied by the gastric juice volume to determine the gastric acid output. The gastric secretion inhibitory action was evaluated by the gastric secretion inhibition (%) on the first day. The gastric secretion inhibitory action (%) was determined by the formula shown below. Where two or more cases were examined, the average of all the cases was determined.
Gastric secretion inhibitory action (%)=(A−B)/A×100
[A]: Gastric acid output during 20 minutes, from 40 minutes to 1 hour after start of histamine administration [B]: Gastric acid output during 20 minutes, from 1 hour and 40 minutes to 2 hours after administration of example compound
The gastric secretion inhibitory action duration was evaluated by the gastric secretion inhibition (%) on the second day. The gastric secretion inhibitory action duration (%) was determined by the formula shown below.
Gastric secretion inhibitory action duration (%)=(C−D)/C×100
[C]: Total gastric acid output from start to one hour after histamine administration on the first day [D]: Total gastric acid output from start to one hour after histamine administration on the second day

## Cc1cnc(C[S+]([O-])c2nc3ccccc3[n-]2)c(C)c1OCC1COC(C)(C)OC1.[Na+] [Compound A, Sodium salt of (R)-2-({[4-(2,2-dimethyl-1,3-dioxan-5-yl)methoxy-3,5-dimethylpyridin-2-yl]methyl}sulfinyl)-1H-benzimidazole]
0.1 mg/kg, average of 4 cases
  Gastric secretion inhibitory action (%): 8%
0.1 mg/kg, 4 cases
  Gastric secretion inhibition duration (%): 6%
0.2 mg/kg, average of 4 cases
  Gastric secretion inhibitory action (%): 65%
0.2 mg/kg, 4 cases
  Gastric secretion inhibition duration (%): 46%
0.4 mg/kg, average of 10 cases
  Gastric secretion inhibitory action (%): 97%
0.4 mg/kg, 10 cases
  Gastric secretion inhibition duration (%): 77%
0.8 mg/kg, average of 8 cases
  Gastric secretion inhibitory action (%): 100%
0.8 mg/kg, 8 cases
  Gastric secretion inhibition duration (%): 89%
